# Measured values reported in patent publication US20220062296A1, “COMBINATIONS OF GABAA ALPHA 5 AGONISTS AND SV2A INHIBITORS AND METHODS OF USING IN THE TREATMENT OF COGNITIVE IMPAIRMENT” (AGENEBIO, INC., priority 2020, published 2022).
# Tests used:
# aMCI subjects = assay: Explicit 3-alternative forced choice task (lure identification); assay type: in vivo, human
# Description: There are various tests known in the art for assessing cognitive function in humans, for example and without limitation, the clinical global impression of change scale (CIBIC-plus scale); the Mini Mental State Exam (MMSE); the Neuropsychiatric Inventory (NPI); the Clinical Dementia Rating Scale (CDR); the Cambridge Neuropsychological Test Automated Battery (CANTAB); the Sandoz Clinical Assessment-Geriatric (SCAG), the Buschke Selective Reminding Test (Buschke and Fuld, 1974); the Verbal Paired Associates subtest; the Logical Memory subtest; the Visual Reproduction sub test of the Wechsler Memory Scale-Revised (WMS-R) (Wechsler, 1997); the Benton Visual Retention Test, or MATRICS consensus neuropsychological test battery which includes tests of working memory, speed of processing, attention, verbal learning, visual learning, reasoning and problem solving and social cognition. See Folstein et al., J Psychiatric Res 12: 189-98, (1975); Robbins et al., Dementia 5: 266-81, (1994); Rey, L'examen clinique en psychologie, (1964); Kluger et al., J Geriatr Psychiatry Neurol 12:168-79, (1999); Marquis et al., 2002 and Masur et al., 1994. Also see Buchanan, R. W., Keefe, R. S. E., Umbricht, D., Green, M. F., Laughren, T., and Marder, S. R. (2011), The FDA-NIMH-MATRICS guidelines for clinical trial design of cognitive-enhancing drugs: what do we know 5 years later? Schizophr. Bull. 37, 1209-1217. Another example of a cognitive test in humans is the explicit 3-alternative forced choice task. […]
# (§1) The activity of the subject's medial temporal lobe is measured by functional MRI during the subject's participation in an explicit 3-alternative forced choice task, where participants view novel, repeated and similar (“lure”) stimuli. […]
# as §1
# [1] = system: aged-impaired (AI) Long-Evans rats; assay: Morris Water Maze (MWM) retention trial, levetiracetam; assay type: in vivo, rat; details: for time spent in the target quadrant (percentage of total swimming time): retention trial 24 hours after training
# Description: Six aged-impaired (AI) Long-Evans rats (as characterized above) were tested for their memory of new spatial information in the Morris water maze (MWM), under different drug/control treatment conditions (vehicle control and two different dosage levels of levetiracetam). A retention trial was performed after the training trials, as described below. The MWM apparatus consists of a large, circular pool (diameter 1.53 m; height, 0.58 m) filled with water (27° C.) that is made opaque through the addition of non-toxic pigment or some other substance. In the typical “hidden platform” version of the test, rats are trained to find a camouflaged white escape platform (height, 34.5 cm) that is positioned in the center of one quadrant of the maze about 1.0 cm below the water surface. This platform can be retracted to the bottom of the tank or raised to its normal position from outside the maze during behavioral testing. The location of the platform remains constant from trial to trial. Because there are no local cues that mark the position of the platform, the rat's ability to locate it efficiently from any starting position at the perimeter of the pool depends on using information surrounding the maze. The maze is surrounded by black curtains to which white patterns are affixed to provide a configuration of spatial cues. A second platform (height 37.5 cm), with its surface painted black is elevated 2 cm above the water surface during cue training to control for factors unrelated to cognition. The behavior of a rat in the pool is recorded by a camera that is suspended 2.5 m above the center of the pool. The camera is connected to a video tracking system (HVS Image Advanced Tracker VP200) and a PC computer running HVS software developed by Richard Baker of HVS Image, Hampton, UK. […] On each training trial, the rat was released in the maze from one of four equally spaced starting positions around the perimeter of the pool. […] In the retention trial, the time the AI rats spent swimming in the target quadrant is measured and further plotted as a percentage of total swimming time. […]
compound,measurement,setting,value
"CC[C@@H](C(N)=O)N1CCCC1=O [levetiracetam, (2S)-2-(2-oxopyrrolidin-1-yl)butanamide]",performance in the explicit 3-alternative forced choice task,"aMCI subjects; levetiracetam 62.5 mg BID, p=0.041",improves significantly
same,performance in the explicit 3-alternative forced choice task,"aMCI subjects; levetiracetam 125 mg twice a day for two weeks, p=0.039",improves significantly
same,performance in the explicit 3-alternative forced choice task,"aMCI subjects; levetiracetam 250 mg BID, p=0.2396",does not significantly improve
same,time spent in the target quadrant (percentage of total swimming time),"[1]; levetiracetam 5 mg/kg/day i.p., vs vehicle",did not significantly improve
same,time spent in the target annulus,"[1]; levetiracetam 10 mg/kg/day i.p., retention trial",effectiveness of the 10 mg/kg/day levetiracetam treatment was also seen
same,time spent in the target quadrant (percentage of total swimming time),[1]; levetiracetam 10 mg/kg/day i.p.,approximately 35%
